Results on three compounds are retold here after patent EP4745139A1, “COMPOUND FOR TREATING AND PREVENTING RESPIRATORY SYNCYTIAL VIRUS INFECTION DISEASES” (CSPC Zhongqi Pharmaceutical Technology (Shijiazhuang) Co., …, priority 2023, dated 2025).

The nature of data set [1]: Pharmacokinetic experiment in mice after intragastric administration (plasma and lung tissue, LC/MS/MS). The format is in vivo. The settings on record: ICR, mouse, intragastric administration at 20 mg/kg; for concentration at 6 h: lung, oral, read-out: Lung tissue drug concentration at 6 h; for half-life: plasma, po. How it is done:
The compounds of the present invention for intragastric administration were dissolved in a suitable solvent to form a clear solution or suspension.
Administration mode and dosage: The compounds of the present invention were administered intragastrically at 10 mg/kg or 20 mg/kg.
Number of animals: 3 ICR mice per group for intragastric administration.
Sample collection: For the intragastric administration group, 100 µL of blood was collected (using pre-heparinized 100 µL Capillary Blood Collection Tubes) from the orbital vein of mice at 0.25 h, 0.5 h, 1 h, 2 h, 4 h, and 6 h after administration and placed in heparin sodium anticoagulant tubes. Mice plasma samples were obtained by centrifugation at 3000 g for 10 minutes within 2 hours. For the intragastric administration group, clean blood was collected at 6-hour time point and then lung tissues were collected.
Sample treatment: Plasma and lung tissue homogenates were subjected to protein precipitation with methanol at a certain ratio, and the supernatant was taken and diluted with 50% methanol-water at a certain ratio for sample loading.
Sample detection: The drug concentration in plasma was detected by the LC/MS/MS method, and the drug-time curve was plotted. Pharmacokinetic parameters (such as T1/2(h)/AUC0-t) were calculated by non-compartmental model statistical moments to describe the pharmacokinetic behavior of the compounds in mice after administration.
Data processing: Pharmacokinetic parameters were calculated by WinNonlin.

In the next data set the test system is RSV strain A2. In words: Antiviral detection test against RSV strain A2 based on ELISA method (Hep-2 cells). The format is cell-based, Respiratory Syncytial Virus. The settings on record: RSV A2 virus strain, Hep-2 cells, ELISA OD450. How it is done:
Test Example 1: Antiviral detection test of small molecules against RSV strain A2 based on ELISA method
• Source of cell line: Nanjing Kebai Biotechnology Co., Ltd. • Cell type: human laryngeal carcinoma epithelial cells Hep-2
• 96-well culture plate (Cat.No. 3610, Corning Costar); • Fetal bovine serum (Cat.No. 10099-141, GIBCO); • DMEM medium (Cat.No. 11995500BT, GIBCO); • Envision 2104 microplate reader.
• 1. Day 1: The Hep-2 cells were seeded into a 96-well plate at a density of 1×10^4 cells/well; • 2. Day 2: • A. Compound dilution: The compound in the first well was diluted to 9 µM, and 3-fold gradient dilution was performed, with a total of 10 gradients; • B. The Hep-2 cell plate prepared on Day 1 was taken out from the incubator, the supernatant was discarded, and 100 PFU/well/50 µL of the RSV A2 virus was added to each well. The plate was stood at 37°C in a 5% CO2 incubator for 2 hours, the supernatant was aspirated and discarded, and then 100 µL of the gradient-diluted compound or DMEM maintenance medium containing 2% FBS was added to each well; • 3. Day 5: • A. Add fixative: The gradient-diluted compound or medium was discarded from the wells, and 100 µL/well of fixative (4% paraformaldehyde) was added. The plate was stood at room temperature for 10 minutes, and then was washed once with 250 µL PBS; • B. 100 µL/well of a blocking solution was added, and the plate was incubated at 37°C in a 5% CO2 incubator for 30 minutes; • C. After incubation, the detection antibody (Anti RSV Fpro) was added at 0.3 µg/50 µL/well (6 µg/mL), and the plate was incubated at 37°C in a 5% CO2 incubator for 1 hour; • D. After incubation, the HRP secondary antibody was added (diluted 10,000-fold with 0.2% BSA), and the plate was incubated at 37°C in a 5% CO2 incubator for 1 hour; • E. After incubation, the wells were washed for 4 times with PBST, 250 µL/well, each washing was allowed to stand for 5 minutes, and the liquid in the wells was shaken off after completion of the washing; • F. 100 µL/well of a development solution was added, the plate was incubated at room temperature in the dark for 20 minutes, and 50 µL/well of a reaction termination solution was added. The plate was tapped gently to mix the solutions, and the absorbance at 450 nm was measured using the microplate reader. • 4. Data analysis • Inhibition rate of the compound against the virus = 100% - (SC - CC)/(VC - CC) × 100% • SC: OD450 value of the sample (cells + test compound + virus) • CC: OD450 value of the normal growing cell control (cells) • VC: OD450 value of the virus growth control (cells + virus)
The software Graphpad Prism 6 was used, and the calculation formula XY-analysis/Nonlinear regression (curve fit)/Dose response-Inhibition/log (inhibition) vs. response-Variable slope (four parameters) was adopted to fit the IC50 curve and calculate the IC50 value.
For orientation: In an ELISA, binding on a coated surface is turned into a signal by an enzyme label.

A further data set deals with RSV. In words: In vivo pharmacodynamic assay: mouse RSV infection model, lung viral load by plaque assay. Set-up: species or system BALB/c mice. As to conditions: lung tissue, Day 5. The protocol:
The compound of the present invention was dissolved in a suitable solvent to form a clear solution or suspension for intragastric administration. • Animals: BALB/c mice, 6-weeks old, female. • Establishment of in vivo RSV infection model: Mice were inoculated intranasally with the virus on Day 0, with an inoculation dose of 3.5 × 10^6 p.f.u. per mouse. • Grouping of animals: Animals were divided into a vehicle control group and an administration group, with 5 animals in each group.
Administration mode and dosage: The compound of the present invention was administered intragastrically at 100 mg/kg or 50 mg/kg, or the vehicle used for the compound of the present invention was administered intragastrically. The administration volume was 10 mL/kg.
Experimental procedure: Mice were inoculated intranasally with the virus on Day 0 at an inoculation dose of 3.5 × 10^6 p.f.u. per mouse. Mice were continuously treated with the compound of the present invention from Day 0 to Day 4 for 5 days at a dose of 50 mg/kg, once daily, via intragastric administration, with an administration volume of 10 mL/kg; the first administration was conducted 1 hour before virus inoculation. Alternatively, mice were treated once with the compound of the present invention on Day 0 at a dose of 100 mg/kg, via intragastric administration, with an administration volume of 10 mL/kg; the first administration was conducted 1 hour before virus inoculation. On Day 5, mice were euthanized, and lung tissue samples were collected. Animals were observed daily from Day 0 to Day 5, and the body weight, health status, and survival status were recorded.
Sample processing: After lungs were collected, they were quickly frozen in the HBSS* solution at a 10-fold weight-to-volume ratio (w:v (g:mL) = 1:10), and stored in a -80°C refrigerator for plaque assay to detect viral load.
Sample detection: Viral load in lung tissues was detected by plaque assay. […]

In data set [2] the target is human potassium ion channel (hERG) (Homo sapiens, UniProt Q12809).
Chain of human potassium ion channel (hERG) (Q12809 whole entry): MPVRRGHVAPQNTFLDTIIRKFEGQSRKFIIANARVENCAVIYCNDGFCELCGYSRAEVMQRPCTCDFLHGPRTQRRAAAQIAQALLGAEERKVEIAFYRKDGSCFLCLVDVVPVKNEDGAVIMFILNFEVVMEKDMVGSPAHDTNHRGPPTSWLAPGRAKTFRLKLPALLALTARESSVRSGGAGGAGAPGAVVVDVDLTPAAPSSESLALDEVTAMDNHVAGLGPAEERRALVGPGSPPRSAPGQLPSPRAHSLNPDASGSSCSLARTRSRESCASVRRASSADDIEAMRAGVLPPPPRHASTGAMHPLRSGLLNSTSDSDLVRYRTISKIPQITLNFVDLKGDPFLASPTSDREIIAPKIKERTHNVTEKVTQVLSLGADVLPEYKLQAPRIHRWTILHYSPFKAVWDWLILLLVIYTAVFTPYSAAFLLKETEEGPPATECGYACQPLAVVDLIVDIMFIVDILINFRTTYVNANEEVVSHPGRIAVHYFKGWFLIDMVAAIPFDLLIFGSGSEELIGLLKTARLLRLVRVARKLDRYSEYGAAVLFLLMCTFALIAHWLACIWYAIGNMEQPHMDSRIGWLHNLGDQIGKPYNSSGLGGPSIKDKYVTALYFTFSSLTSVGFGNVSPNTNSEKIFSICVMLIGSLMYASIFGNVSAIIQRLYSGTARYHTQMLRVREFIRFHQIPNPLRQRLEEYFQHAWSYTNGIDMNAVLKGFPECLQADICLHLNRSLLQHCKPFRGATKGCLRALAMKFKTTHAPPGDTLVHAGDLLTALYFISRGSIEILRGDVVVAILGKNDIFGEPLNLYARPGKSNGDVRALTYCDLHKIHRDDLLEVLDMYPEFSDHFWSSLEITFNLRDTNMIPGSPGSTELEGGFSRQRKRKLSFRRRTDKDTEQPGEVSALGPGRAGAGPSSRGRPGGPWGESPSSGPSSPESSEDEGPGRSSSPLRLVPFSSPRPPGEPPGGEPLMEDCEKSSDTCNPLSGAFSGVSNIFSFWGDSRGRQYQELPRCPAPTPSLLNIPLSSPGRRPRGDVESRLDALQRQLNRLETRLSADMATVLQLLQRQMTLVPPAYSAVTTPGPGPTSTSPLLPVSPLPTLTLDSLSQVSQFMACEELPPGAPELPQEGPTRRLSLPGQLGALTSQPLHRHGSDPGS
Protocol: Experimental equipment: Electrophysiological detection was performed using the fully automated patch clamp QPatch 48 X (Sophion) device.
Experimental procedure: The prepared cells were placed in the centrifuge chambers of the QPatch workbench, the cells were washed by the centrifugation/suspension method for multiple times to replace the cell culture medium with an extracellular solution. One MTP-96 plate was taken out and placed at the MTP source position. The QPlate chip was taken out and then the QPlate was placed at the QPlate source position. The robotic arm scanned the MTP-96 plate and the barcodes of the QPlate chip, and grabbed them to the measurement station. Intracellular and extracellular solutions were aspirated from the liquid pool and added to the intracellular solution pool and the cell and test substance pool of the QPlate chip, respectively. At the measurement station, all measurement sites on the QPlate underwent initial quality control. […] The current detected in each cell in the extracellular solution without the compound was used as its own control group, and the detection was independently repeated on two cells. […]
Data processing: The IC50 values were calculated using GraphPad Prism software.

For orientation: half-life means how long it takes for the measured level to halve. By IC50 is commonly meant the concentration that gives 50% inhibition. As to `Cc1ccc2nc(N3CCS(=O)(=NC4CC4)c4ccccc4C3)nc(N3CC[C@H](N)C3)c2c1` (stereo partly shown) [Example 4-11], the concentration at 6 h in data set [1] came out at 22700 ng/g. In data set [1], this compound showed a half-life of 6.91 h. The compound further registered an IC50 with RSV strain A2 (human respiratory syncytial virus) of less than 10 nM. The “log (RSV Viral Load) Mean” value with RSV (50 mpk, QD, 5 days administration, value is the lower limit of detection for viral load) came to 2.30°; with RSV (100 mpk, QD, administration once), 2.48.

As for `Cc1ccc2nc(N3CCS(=O)(=NCC4CCO4)c4ccccc4C3)nc(N3CC[C@H](N)C3)c2c1` (stereo partly shown) [Example 4-61], in data set [2], the “IC50 of the Compound of the present invention /AK0529 IC50” value is greater than 1. Also, the IC50 in the data set with RSV strain A2 was less than 10 nM.

For the compound `Cc1ccc2nc(N3CCS(=O)(=O)c4ccccc4C3)nc(NCC3(N)COC3)c2c1` [AK0529, reference compound], in data set [1], the concentration at 6 h worked out at 1210 ng/g and the half-life is 1.55 h. The “log (RSV Viral Load) Mean” value in the data set on RSV (50 mpk, BID, 5 days administration) is listed as 3.06.
